Laboratory results: patent US9364514B2, “Anti-tumor adjuvant therapy” (Universite Pierre et Marie Curie (Paris 6), priority 2011, dated 2016)

How the values were obtained:
[1] = system: mouse breast tumors from transgenic polyoma Middle-T mice (PyMT model); assay: Therapeutic assay in nude mice bearing xenografted mouse breast tumors (PyMT model); type: in vivo; conditions: 5 mg/kg i.p. daily
From the text: (§1) The primary human xenografts were obtained as previously described (Marangoni et al., 2007). Mouse breast cancer tumors were obtained using the transgenic Polyoma Middle-T Mouse PyMT model. Spontaneously growing mammary tumors occurring in transgenic mice were xenografted into nude immunodeficient mice to allow pharmacological assessments, and maintained from nude mouse to nude mouse serially passages.
(§2) For therapeutic experimental assays, 5- to 8-week old Swiss nu/nu female mice received a subcutaneous graft of tumor fragments with a volume of approximately 15 mm3. Tumors developed at the graft site 2 to 6 weeks later. Mice bearing growing tumors with a volume of 40 to 200 mm^3 were individually identified and randomly assigned to the control or treatment groups (10 animals in each group) and treatments were started on day 1. Mice were weighed twice a week. Tumour-bearing mice were sacrificed when the tumor volume reached 2500 mm^3, defined as the ethical limit. Tumor volumes and antitumor activity were evaluated as previously reported (Nemati et al. 2009. Anti Cancer Drugs 20, pages 932-940).
The anti-tumoral effect of the mouse peptide DPT-C9 was analyzed in nude mice bearing xenograft mouse breast tumors obtained from the transgenic polyoma Middle-T mice. […]

breast cancer model BC52 = assay: Therapeutic assay in mice bearing primary human breast cancer xenograft BC52; type: in vivo, Swiss nu/nu female mice
From the text: as §1, §2
(§3) DPT-C9h peptide diluted in water/glucose (1 to 25 mg/kg) was given by intraperitoneally route 5 to 7 days per week, according to the models and the therapeutic schedules. Doxorubicin (Teva Pharmaceuticals) and cyclophosphamide (Baxter) were diluted in 0.9% NaCl and administered intraperitoneally at a dose of 2 mg/kg and 100 mg/kg at day 1, respectively.
(§4) The anti-tumoral effect of DPT-C9h was tested in mice bearing breast cancer model BC52 and BC146. DPT-C9h was intraperitoneally administered at 5 mg/kg once daily for 5 weeks.

[2] = system: BC146 human breast cancer model; assay: Therapeutic assay in mice bearing primary human breast cancer xenograft BC146; type: in vivo, Swiss nu/nu female mice
From the text: as §1, §2, §3, §4
The inventors have further tested combined administration of DPT-C9h with doxorubicin and cyclophosphamid chemotherapy. The administration was either simultaneous or sequential: DPT-C9h was then administered at day 20, a stage corresponding to a chemotherapy-induced complete remission.

[3] = system: MDA MB231 breast cancer cell line; assay: Detection of apoptosis by Annexin-V-FITC staining; type: cell-based
Description: (§5) MDA MB231 breast cancer cell line was cultured in DMEM medium supplemented with 10% of FCS.
Apoptotic cells were detected using Annexin-V (-FITC from BD biosciences) as described by the manufacturer. Briefly, the cells were washed in 1× binding buffer, centrifuged and then resuspended in 200 μl of 1× binding buffer containing Annexin V-FITC (0.1 μg/ml) and PI (0.5 μg/ml). After incubation at room temperature in the dark for 10 min, cells were analyzed by flow cytometry. Data acquired by FACSCalibur (BD biosciences) were analyzed with Cellquest Pro software.

[4] = system: MDA MB231 breast cancer cell line; assay: Cytotoxicity assay (MTT); type: cell-based; conditions: 61 h
Description: as §5
The cytotoxicity of chemotherapy and the peptide was assessed by MTT. […] Cells were rinsed with culture medium and incubated with 10 μl MTT (5 mg/ml) in a final volume of 100 μl for 4 h at 37° C. The formation of blue formazan crystals was visualized by microscopy. After this period of incubation, 100 μl of 10% SDS in 10 mM HCl was added to each well and the plate incubated overnight. The absorbance was measured at 570 and 620 nm and the percentage of viable cells to untreated controls was estimated.

[5] = BC52 model, Treatment (Chemo.) = Ovariectomy, DPT-C9h 5 mg/kg i.p. once daily for 5 weeks
[6] = BC146 model, Chemo. = Doxorubicin + cyclophosphamid, DPT-C9h 5 mg/kg i.p.

| Substance | tumor growth inhibition [1] | tumor growth inhibition (breast cancer model BC52; BC52, 5 mg/kg i.p. once daily for 5 weeks, end of treatment) | OS: Overall survival (breast cancer model BC52; [5]) | RTV: Relative tumor volume (breast cancer model BC52; [5]) | tumor growth inhibition ([2]; BC146, 5 mg/kg i.p. once daily for 5 weeks, end of treatment) | OS: Overall survival [2, 6] | RTV: Relative tumor volume [2, 6] | tumor relapse ([2]; DPT-C9h combined with doxorubicin and cyclophosphamid, simultaneous or sequential (from day 20), versus chemotherapy alone) | CR: Complete remission ([2]; Treatment (Chemo.) = Doxorubicin 2 mg/kg + cyclophosphamid 100 mg/kg i.p. day 1, DPT-C9h simultaneous or from day 20) | apoptosis (annexin staining), combination effect ([3]; 5FU 10 μM 24 h, then 25 or 50 μM DPT-C9h for 24 further h) | apoptosis (annexin staining), combination effect ([3]; cisplatin 10 μM 24 h, then increasing doses of DPT-C9h for 24 further h) | apoptosis (annexin staining), combination effect ([3]; different doses of DPT-C9h + doxorubicin 0.25 μM, 24 h) | apoptosis (annexin staining), combination effect ([3]; docetaxel 0.5 μM + 10 and 25 μM DPT-C9h, 24 h) | cell survival (MTT) ([4]; different doses of 5FU + DPT-C9h 10 μM) | cell survival (MTT) ([4]; different doses of cisplatin + DPT-C9h 10 μM) | cell survival (MTT) ([4]; different doses of docetaxel + DPT-C9h 10 μM, versus docetaxel only) |
| --- | --- | --- | --- | --- | --- | --- | --- | --- | --- | --- | --- | --- | --- | --- | --- | --- |
| VKKKKIKREIKI-YIETLDDILEQWARSEDL (VKKKKIKREIKIYIETLDDILEQWARSEDL; cell penetrating peptide) [DPT-C9] | significant tumor growth inhibition |  |  |  |  |  |  |  |  |  |  |  |  |  |  |  |
| VKKKKIKREIKI-YVETLDDIFEQWAHSEDL (VKKKKIKREIKIYVETLDDIFEQWAHSEDL; cell penetrating peptide) [DPT-C9h] |  | significant tumor growth inhibition | 33% | 0.70 | significant tumor growth inhibition | 27% | 20.2 | delayed tumor relapse better than chemotherapy alone | 0% | synergistic apoptotic effect | synergistic apoptotic effect | synergistic effect on apoptosis | synergistic apoptotic effect | low cell survival | low level of cell survival | low survival |
